Measured values from patent publication US20060276412A1, “METHODS AND COMPOSITIONS FOR MANAGING PSYCHOTIC DISORDERS” (priority 2005, published 2006).

How the values were obtained:
[1] = test system: serotonin (5HT) in hypothalamus; assay: Brain microdialysis: serotonin in hypothalamus; type: in vivo, rats; details: 3 mg/kg olanzapine
Description: (§1) 62 adult Sprague-Dawley male rats (Harland, Indianapolis) weighing 300-350 g were used in the following studies. The rats were quarantined for at least five days in group housing. Following the quarantine procedure, rats were maintained in individual cages. For surgical implantation with intracerebral guides, guides were inserted directly above either the hypothalamus (HT) (31 rats), or the medial prefrontal cortex (mPFC) (31 rats). Stereotaxic coordinates (Paxinos and Watson, 1986) provided below were used to position the guide cannulae and/or probes: Animals were anesthetiszed according using standard procedures. The head of each animal was shaved from the front of the eyes to the back of the skull. Shaved areas were disinfected, and the animals were placed in stereotaxic frame ear bars. The animal was aligned with the incisor bar. The animal's scalp was cut with a sharp #15 scalpel blade. If the bone began to bleed, bone wax was applied to the incision. Periosteal tissue was cleaned from the skull to the lateral ridges with a cotton swab, and clamps were used to pull the skin out of the way. The probe or guide was placed in the clamp, such that the angled outlet cannula of the microdialysis probe was angled towards the animal's tail. The target coordinates were calculated, and this point was marked on the skull. Two holes in opposing skull bones were drilled for bone anchor screws and thread screws. The dura was torn away with a sharp, pointed object. The guide cannulae were placed at the dorsal/ventral zero point. […] Using dental acrylic, the cannulae were cemented to the bone anchor screws. The cement was allowed to harden and the rodent was removed from the stereotaxic frame. The cranial and caudal aspects of the incision were sutured. The animals were allowed to recover for three to five days. Stylets in the guides were replaced with dialysis probes on the evening prior to study to allow for animal acclimation and to reestablish the integrity of the blood brain barrier. […] Rats were weighed pre-surgery, every 1-2 days post-surgery until time of microdialysis, and postmortem. Microdialysis probes used in the experiments described below were first soaked in standard Ringer's perfusion medium for 30 minutes. Inlet and outlet tubing was connected to each probe using flanged connectors. The outlet tubing was connected to a fraction collector, and the inlet was connected to and […] syringe drive. The probes were immersed in fresh Ringer's solution and flushed with Ringer's perfusion medium at a rate of 2 μl/min for 1 hour. The probe was then transferred to the intracerebral guide on the rat's skull. […] Water was added to obtain a final concentration of 0.3 mg/ml. […] Zonisamide was dissolved in DMSO. […] The final concentration of zonisamide was 7.5 mg/ml. The drug solution was maintained at 37° C. prior to injection. The rats were divided into ten test groups. Five animals were analyzed for each test group. The test groups were as follows: For the microdialysis experiments, perfusion consisted of 2 μl/min delivery of sterile standard Ringer's solution for intervals of 20 minutes. Final collection volumes were 40 μl. 30 μl samples were analyzed for each analyte: DA, NE, 5HT. 12 pre-dose samples and 12 post dose samples were collected every 20 minutes for a duration of 4 hours, both pre-dose and post-dose. Six samples from the pre-dose and post-dose collections were analyzed for norepinephrine. The remaining six samples from the pre-dose and post-dose collections were analyzed for both dopamine and serotonin. Samples were chilled to -80° C. immediately following collection. The samples were analyzed using liquid chromatography with electrochemical detection using conventional techniques. See, e.g., Huang, T., R. et al. (1994) New […] Microbore Columns for Liquid Chromatography. Current Separations 12(4): 191-195. […] Concentrations of each compound are expressed as % baseline.

[2] = test system: serotonin (5HT) in medial prefrontal cortex; assay: Brain microdialysis: serotonin in mPFC; type: in vivo, rats; details: 3 mg/kg olanzapine
Description: as §1

[3] = test system: dopamine (DA) in hypothalamus; assay: Brain microdialysis: dopamine in hypothalamus; type: in vivo, rats; details: 3 mg/kg olanzapine
Description: as §1

[4] = test system: dopamine (DA) in medial prefrontal cortex; assay: Brain microdialysis: dopamine in mPFC; type: in vivo, rats; details: 3 mg/kg olanzapine
Description: as §1

[5] = test system: norepinephrine (NE) in hypothalamus; assay: Brain microdialysis: norepinephrine in hypothalamus; type: in vivo, rats; details: 3 mg/kg olanzapine
Description: as §1

[6] = test system: norepinephrine (NE) in medial prefrontal cortex; assay: Brain microdialysis: norepinephrine in mPFC; type: in vivo, rats; details: 3 mg/kg olanzapine
Description: as §1

[7] = test system: dopamine receptors; details: cited from earlier work
[8] = test system: serotonin receptors; details: cited from earlier work
[9] = test system: alpha-adrenergic receptors; details: cited from earlier work
[10] = test system: histaminic receptors; details: cited from earlier work
[11] = cited from earlier work

SMILES: Cc1cc2c(s1)Nc1ccccc1N=C2N1CCN(C)CC1 [olanzapine]
- Serotonin concentrations in hypothalamus ([1]; 3 HOUR AVE): 89.0647 % baseline
- Serotonin concentrations in hypothalamus ([1]; 40 min post dose): 89.816 % baseline
- Serotonin concentrations in hypothalamus ([1]; 80 min post dose): 86.183 % baseline
- Serotonin concentrations in hypothalamus ([1]; 120 min post dose): 92.131 % baseline
- Serotonin concentrations in hypothalamus ([1]; 160 min post dose): 80.560 % baseline
- Serotonin concentrations in hypothalamus ([1]; 200 min post dose): 98.707 % baseline
- Serotonin concentrations in hypothalamus ([1]; 240 min post dose): 88.921 % baseline
- Serotonin concentrations in hypothalamus ([1]; -20 min pre dose): 107.440 % baseline
- Serotonin concentrations in hypothalamus ([1]; -60 min pre dose): 98.601 % baseline
- Serotonin concentrations in hypothalamus ([1]; -100 min pre dose): 93.959 % baseline
- Serotonin concentrations in mPFC ([2]; 3 HOUR AVE): 88.1078 % baseline
- Serotonin concentrations in mPFC ([2]; 40 min post dose): 115.609 % baseline
- Serotonin concentrations in mPFC ([2]; 80 min post dose): 101.724 % baseline
- Serotonin concentrations in mPFC ([2]; 120 min post dose): 88.189 % baseline
- Serotonin concentrations in mPFC ([2]; 160 min post dose): 92.085 % baseline
- Serotonin concentrations in mPFC ([2]; 200 min post dose): 119.171 % baseline
- Serotonin concentrations in mPFC ([2]; 240 min post dose): 83.828 % baseline
- Serotonin concentrations in mPFC ([2]; -20 min pre dose): 98.453 % baseline
- Serotonin concentrations in mPFC ([2]; -60 min pre dose): 100.982 % baseline
- Serotonin concentrations in mPFC ([2]; -100 min pre dose): 100.565 % baseline
- Dopamine concentrations in hypothalamus ([3]; 3 HOUR AVE): 125.98 % baseline
- Dopamine concentrations in hypothalamus ([3]; 40 min post dose): 156.507 % baseline
- Dopamine concentrations in hypothalamus ([3]; 80 min post dose): 110.363 % baseline
- Dopamine concentrations in hypothalamus ([3]; 120 min post dose): 183.338 % baseline
- Dopamine concentrations in hypothalamus ([3]; 160 min post dose): 89.032 % baseline
- Dopamine concentrations in hypothalamus ([3]; 200 min post dose): 113.293 % baseline
- Dopamine concentrations in hypothalamus ([3]; 240 min post dose): 95.959 % baseline
- Dopamine concentrations in hypothalamus ([3]; -20 min pre dose): 99.830 % baseline
- Dopamine concentrations in hypothalamus ([3]; -60 min pre dose): 93.473 % baseline
- Dopamine concentrations in hypothalamus ([3]; -100 min pre dose): 106.697 % baseline
- Dopamine concentrations in mPFC ([4]; 3 HOUR AVE): 209.94 % baseline
- Dopamine concentrations in mPFC ([4]; 40 min post dose): 227.023 % baseline
- Dopamine concentrations in mPFC ([4]; 80 min post dose): 266.655 % baseline
- Dopamine concentrations in mPFC ([4]; 120 min post dose): 219.135 % baseline
- Dopamine concentrations in mPFC ([4]; 160 min post dose): 186.256 % baseline
- Dopamine concentrations in mPFC ([4]; 200 min post dose): 202.788 % baseline
- Dopamine concentrations in mPFC ([4]; 240 min post dose): 153.048 % baseline
- Dopamine concentrations in mPFC ([4]; -20 min pre dose): 105.509 % baseline
- Dopamine concentrations in mPFC ([4]; -60 min pre dose): 119.009 % baseline
- Dopamine concentrations in mPFC ([4]; -100 min pre dose): 75.482 % baseline
- Norepinephrine concentrations in hypothalamus ([5]; 3 HOUR AVE): 129.18 % baseline
- Norepinephrine concentrations in hypothalamus ([5]; 20 min post dose): 161.934 % baseline
- Norepinephrine concentrations in hypothalamus ([5]; 60 min post dose): 148.422 % baseline
- Norepinephrine concentrations in hypothalamus ([5]; 100 min post dose): 115.418 % baseline
- Norepinephrine concentrations in hypothalamus ([5]; 140 min post dose): 118.651 % baseline
- Norepinephrine concentrations in hypothalamus ([5]; 180 min post dose): 113.533 % baseline
- Norepinephrine concentrations in hypothalamus ([5]; 220 min post dose): 115.014 % baseline
- Norepinephrine concentrations in hypothalamus ([5]; -40 min pre dose): 105.631 % baseline
- Norepinephrine concentrations in hypothalamus ([5]; -80 min pre dose): 103.272 % baseline
- Norepinephrine concentrations in hypothalamus ([5]; -120 min pre dose): 91.097 % baseline
- Norepinephrine concentrations in mPFC ([6]; 3 HOUR AVE): 154.642 % baseline
- Norepinephrine concentrations in mPFC ([6]; 20 min post dose): 162.923 % baseline
- Norepinephrine concentrations in mPFC ([6]; 60 min post dose): 197.693 % baseline
- Norepinephrine concentrations in mPFC ([6]; 100 min post dose): 159.929 % baseline
- Norepinephrine concentrations in mPFC ([6]; 140 min post dose): 141.759 % baseline
- Norepinephrine concentrations in mPFC ([6]; 180 min post dose): 147.978 % baseline
- Norepinephrine concentrations in mPFC ([6]; 220 min post dose): 117.569 % baseline
- Norepinephrine concentrations in mPFC ([6]; -40 min pre dose): 98.000 % baseline
- Norepinephrine concentrations in mPFC ([6]; -80 min pre dose): 119.880 % baseline
- Norepinephrine concentrations in mPFC ([6]; -120 min pre dose): 82.120 % baseline
- affinity for dopamine receptors [7]: high affinity
- affinity for serotonin receptors [8]: high affinity
- affinity for alpha-adrenergic receptors [9]: lower affinity
- affinity for histaminic receptors [10]: lower affinity
- patients with a weight gain of ≧7% ([11]; analysis of four studies of various durations): 40%
- time at which induced weight gain peaks ([11]; noticeable in the first month of treatment): about 9 months

SMILES: O=C1Cc2cc(CCN3CCN(c4nsc5ccccc45)CC3)c(Cl)cc2N1 [ziprasidone]
- affinity for dopamine receptors [7]: high affinity
- affinity for serotonin receptors [8]: high affinity
- affinity for alpha-adrenergic receptors [9]: high affinity
- affinity for histaminic receptors [10]: medium affinity
